Columns and labels:
Conditions in all cases: 48 h
[1] = tested on: CU-ACC1; assay: AC50 viability; higher = less potent
Outline: (§1)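 Library compounds were tested at 11 concentrations against three adrenocortical carcinoma cell lines in 1,536-well plates. CellTiter-Glo luminescence was read after 48 h and normalised per plate to vehicle and empty-well controls. Only inhibitory or non-responding curve classes from fitted concentration-response curves contributed AC50 and area under the curve.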

[2] = tested on: NCI-H295R; assay: AC50 viability; higher = less potent
Outline: as §1

[3] = tested on: CU-ACC1; assay: area under concentration-response curve (viability) (AUC (a.u.)); higher = less active
Outline: as §1

[4] = tested on: CU-ACC2; assay: as above
Outline: as §1

[5] = tested on: NCI-H295R; assay: as above
Outline: as §1

| SMILES | AC50 viability [1] | AC50 viability [2] | area under concentration-response curve [3] | area under concentration-response curve [4] | area under concentration-response curve [5] |
| --- | --- | --- | --- | --- | --- |
| Cc1cc(Nc2ncnc3ccc(-c4ccc(CNCC[S+](C)(=O)[O-])o4)cc23)ccc1Oc1ccn2ncnc2c1 | 23.5 µM | 8.33 µM | 386 | 355 | 392 |
| ONC(=O)C1=CC=C(C=C1)C/2=N/C3=CC=CC=C3OC4=C2C=CC=C4 | 16.6 µM | 16.6 µM | 362 | 507 | 557 |
| C=C1C(=O)O[C@H]2C[C@H](C)C(/C=C/C(C)=O)=CC[C@H]12 | 9.34 µM | 18.6 µM | 450 | 529 | 519 |
| CC(C)n1nc(-c2ccc3oc(N)nc3c2)c2c(N)ncnc21 | 0.0372 µM | 0.166 µM | 338 | 455 | 404 |
| C[C@H]1[C@H](O)O[C@@H]2O[C@@]3(C)CC[C@H]4[C@H](C)CC[C@@H]1[C@@]24OO3 | 6.61 µM | 20.9 µM | 494 | 604 | 549 |
| COc1cc(OC)cc(N2CCN(C(=O)Nc3nc4cc(F)ccc4nc3OC)CC2)c1 | 23.5 µM | 16.6 µM | 503 | 556 | 454 |
| C[C@@H](C(=O)Nc1ccc(Cl)cc1)[C@H]1CC[C@@H](c2ccnc3ccc(F)cc32)CC1 | 29.5 µM | 16.6 µM | 488 | 626 | 564 |
| Cc1nc(-c2cn3c(n2)-c2ccc(-c4cnn(C(C)(C)C(N)=O)c4)cc2OCC3)n(C(C)C)n1 | 0.132 µM | 0.934 µM | 414 | 528 | 458 |
| NC(=O)c1ccccc1Nc1ccnc(Nc2cccc(O)c2)n1 | 20.9 µM | 2.63 µM | 465 | 553 | 462 |
| C[C@@H]1CN(Cc2ccc(F)cc2)CCN1C(=O)COc1ccc(Cl)cc1NC(N)=O | 1.86 µM | 0.166 µM | 412 | 522 | 465 |
| Cc1cnc(NC(=O)Nc2cc(Br)c(C)cc2OC[C@@H]2CNCCO2)cn1 | 6.61 µM | 4.68 µM | 486 | 613 | 524 |
| COC1=C(OCCCN2CCOCC2)C=CC\3=C1/N=C(/NC(=O)C4=CN=C(N)N=C4)N5CC/N=C35 | 0.0382 µM | 0.108 µM | 431 | 542 | 452 |
| COc1c(N2C[C@@H]3CCCN[C@@H]3C2)c(F)cc2c(=O)c(C(=O)O)cn(C3CC3)c12.Cl.O | 0.525 µM | 0.118 µM | 400 | 484 | 399 |
| FC(F)(F)c1ccc(C/N=c2\ccc(Cc3c[nH]c4ncccc34)c[nH]2)cc1 | 16.6 µM | 11.8 µM | 511 | 597 | 541 |

— the supplement of paper PMC10949913
